Measured values published in patent publication US9670197B2, “Small molecule modifiers of the Hec1-Nek2 interaction in G2/M” (The Regents of the University of California, priority 2013, dated 2017).

Key:
[1] = tested on: HeLa cells; assay: Mitotic abnormalities in HeLa cells; format: cell-based, human; settings: for chromosomal misalignment: 24 hrs of treatment, versus DMSO
Excerpt: INH-triggered mitotic catastrophe. […] Error bars represent SE, n=>200 per sample in FIG. 3A. […] Error bars represent SE n=200 in FIG. 3B. Over time, the accumulation of chromosomal and spindle abnormalities led to cell death.

[2] = tested on: Aurora A; assay: Aurora A expression in treated HeLa cells, western blot; format: cell-based; settings: dose series
Method: INH-induced Nek2 degradation; INH-inhibition of Hec1 phosphorylation by Nek2. […] To evaluate whether INH treatment affected cell cycle profile or Nek2 mRNA level, we performed FACS and real-time PCR analysis.
Protein extraction and western blot analysis. The protein extractions and western blot analyses of Examples 4-6 were conducted as follows. Cell extracts were prepared and equal amounts of protein were separated by SDS-PAGE (10% w/v gel) followed by electrophoretic transfer to PVDF membranes (Millipore, Billerica, Mass.). After blocking with 5% w/v powdered non-fat milk, the membrane was incubated with different antibodies for overnight at 4° C. and treated for 1 hr with horseradish peroxidase-conjugated goat anti-mouse IgG and goat anti-rabbit IgG antibodies (GeneTex, Irvine, Calif.). ECL detection of the horseradish peroxidase reaction was performed according to the manufacturer's instructions (Millipore, Billerica, Mass.). Protein signal was measured on a LAS 4000 mini Imaging System (Fujifilm, Valhalla, N.Y.).

[3] = tested on: MDA-MB-468 breast cancer cells tumor xenografts; assay: Breast tumor xenograft model; format: in vivo, athymic nude mice; settings: versus vehicle; for tumor growth rate: thrice-weekly i.p., 10 or 50 mg/kg INH41, 5 or 20 mg/kg INH154, 6.5 weeks; for percentage of proliferating tumor cells (BrdU staining) / phosphorylation of Hec1 at S165 in tumors: tumors harvested one week after last injection
Excerpt: INH inhibition of breast tumor growth in xenograft model. We performed in vivo xenograft mouse experiments to examine the efficacy of INHs in accordance with guidelines and protocols of the University of California at Irvine Animal Research Committee. MDA-MB-468 breast cancer cells (2×10^6) were inoculated into mammary fat pads of 6-8 week old athymic nude mice mice (nu/nu; Harlan Sprague-Dawley Inc., Indianapolis, Ind.) to form tumor xenografts. […] Administration of control and INH treatments was carried out for 6.5 weeks and tumor sizes were measured. Mice body weights and tumor sizes were measured twice weekly. Tumor volume was calculated as (length×width^2)/2 (in mm), and data were presented as mean tumor volume±SEM.
One week after the last injections were administered, mice were sacrificed and their tumors were harvested for immunohistochemistry analysis. […] Error bars represent SE (n=4) in FIGS. 2C and 2D.
Immunohistochemistry analysis was conducted as follows. Paraffin-embedded tumor sections (5 μm) were incubated with primary antibody, counterstained with hematoxylin, and detected using a LSAB™ kit (DakoCytomation) according to the manufacturer's instructions. BrdU antibody was purchased from GeneTex, Irvine, Calif. and Hec1 pS165 antibody was prepared as described in Wei et al. Phosphorylation of the Ndc80 complex protein, HEC1, by Nek2 kinase modulates chromosome alignment and signaling of the spindle assembly checkpoint. Molecular biology of the cell 22, 3584-3594 (2011), hereby incorporated by reference in its entirety.

[4] = tested on: HS27; assay: Growth inhibition, normal skin fibroblast HS27; format: cell-based; settings: for IC50: Homo sapiens, Table 2, Fibroblast, HS27, read-out: cell growth suppression; for growth inhibitory effect on non-tumorgenic fibroblast cells: data not shown
Method: (§1) Cell lines and establishment of stable cell lines. Human breast cancer cell lines MDA-MB-231 and MDA-MB-468, osteosarcoma line U20S, cervical adenocarcinoma line HeLa, and normal skin fibroblast Hs27 were maintained in DMEM medium (Invitrogen, Grand Island, N.Y.) supplemented 10% fetal bovine serum (FBS) and 1% penicillin-streptomycin. The leukemia cell line K562 and glioblastoma cell line T98G were grown in RPMI 1640 supplemented 10% FBS and 1% penicillin-streptomycin. Normal mammary gland epithelial cell line MCF10A was cultured in DMEM/F12 (50:50) plus 5% horse serum, 0.1 μg/mL cholera toxin, 10 μg/mL insulin, 0.5 μg/mL hydrocortisone, and 20 ng/mL epidermal growth factor. To establish MDA-MB-468 cells that stably expressed each individual GFP-Hec1 deletion construct described above, cells were infected with retrovirus expressing GFP-Hec1 WT, GFP-Hec1 W395A and GFP-Hec1 WLK/AAA, and were selected with 2 μg/ml puromycin.

[5] = target: T1, Nek2 (Homo sapiens, UniProt P51955); assay: Biotin-conjugated INH pull-down, Nek2; format: binding
T1 construct: endogenous in cells; host or cells: HeLa
T1 sequence (P51955 1-445): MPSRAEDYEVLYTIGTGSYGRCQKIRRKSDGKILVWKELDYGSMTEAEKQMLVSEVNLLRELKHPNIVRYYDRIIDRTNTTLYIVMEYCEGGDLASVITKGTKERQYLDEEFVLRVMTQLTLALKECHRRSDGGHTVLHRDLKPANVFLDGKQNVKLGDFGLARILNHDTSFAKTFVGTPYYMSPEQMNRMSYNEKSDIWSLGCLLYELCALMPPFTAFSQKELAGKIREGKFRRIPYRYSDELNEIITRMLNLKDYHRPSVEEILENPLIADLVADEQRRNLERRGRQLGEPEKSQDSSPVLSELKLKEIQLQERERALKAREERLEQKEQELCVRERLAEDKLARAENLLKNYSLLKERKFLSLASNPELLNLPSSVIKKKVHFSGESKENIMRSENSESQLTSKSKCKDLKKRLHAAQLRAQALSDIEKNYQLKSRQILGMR

[6] = tested on: MDA-MB-231; assay: Cancer cell growth inhibition, MDA-MB-231; format: cell-based; settings: Homo sapiens, Table 2, Breast adenocarcinoma, read-out: cancer cell growth suppression
Method: as §1

[7] = tested on: HeLa; assay: Cancer cell growth inhibition, HeLa; format: cell-based; settings: Homo sapiens; Table 2, Cervical, HeLa; read-out: cancer cell growth suppression
Method: as §1

[8] = tested on: MB468; assay: Cancer cell growth inhibition, MB468 (MDA-MB-468); format: cell-based; settings: Homo sapiens, Table 2, Breast adenocarcinoma, read-out: cancer cell growth suppression

SMILES	chromosomal misalignment [1]	expression of Aurora A [2]	tumor growth rate [3]	percentage of proliferating tumor cells (BrdU staining) [3]	phosphorylation of Hec1 at S165 in tumors [3]	IC50 [4] [nM]	growth inhibitory effect on non-tumorgenic fibroblast cells [4]	interaction with Nek2 in pull-down [5]	IC50 [6] [nM]	IC50 [7] [nM]	multipolar spindle configurations in the mitotic population ([1]; time course)	IC50 [8] [nM]
Cc1cc(N2CCCCC2)cc(C)c1-c1csc(NC(=O)c2ccncc2)n1 [INH154, N-(4-(2,6-Dimethyl-4-(piperidin-1-yl)phenyl)thiazol-2-yl)isonicotinamide]	increased chromosomal misalignment	not affected	significantly slower	reduced	substantially reduced	40000	Neither INH41 nor INH154 had significant growth inhibitory effects	Nek2 does not interact	140			
Cc1cc(C)c(-c2csc(C(=O)c3ccncc3)n2)c(C)c1 [INH41, (4-mesitylthiazol-2-yl)(pyridin-4-yl)methanone]	increased chromosomal misalignment	not affected	significantly slower	reduced	substantially reduced	62000	Neither INH41 nor INH154 had significant growth inhibitory effects	Nek2 does not interact	400	670	aggravated in a time-dependent manner	690
